Data taken from patent US9840513B2 (AbbVie S.à.r.l., priority 2015, dated 2017).

Molecular target: T1, F508delCFTR cell surface expression in CFBE41o-F508delCFTR-HRP cells (Homo sapiens, UniProt P13569, DEL508-508)
T1 construct: fused on or other part: Horseradish peroxidase (HRP) reporter inserted in the fourth exofacial (extracellular) loop of CFTR; expression is doxycycline-inducible
Assay: Cell Surface Expression-Horse Radish Peroxidase (CSE-HRP) Assay
Type: cell-based
Settings: for EC50: CFBE41o-F508delCFTR-HRP cells, 18-24 hours at 33° C., 8-point curve, highest concentration 20 μM; for Maximum % activity (%): maximum at any tested concentration, normalized to on-plate positive control (3 μM)
How it was run: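 CFBE41o- cells with HRP-tagged F508delCFTR, expression induced by 0.5 μg/mL doxycycline for 72 h at 37 °C, then compound for 18-24 h at 33 °C (8-point, 3-fold, top 20 μM). Surface HRP measured by luminol luminescence; % activity normalised to 3 μM positive-control corrector; EC50 from variable-slope sigmoidal fit, three replicate plates.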

T1 sequence (P13569 with tags, fused parts or gaps DEL508-508 limits assumed): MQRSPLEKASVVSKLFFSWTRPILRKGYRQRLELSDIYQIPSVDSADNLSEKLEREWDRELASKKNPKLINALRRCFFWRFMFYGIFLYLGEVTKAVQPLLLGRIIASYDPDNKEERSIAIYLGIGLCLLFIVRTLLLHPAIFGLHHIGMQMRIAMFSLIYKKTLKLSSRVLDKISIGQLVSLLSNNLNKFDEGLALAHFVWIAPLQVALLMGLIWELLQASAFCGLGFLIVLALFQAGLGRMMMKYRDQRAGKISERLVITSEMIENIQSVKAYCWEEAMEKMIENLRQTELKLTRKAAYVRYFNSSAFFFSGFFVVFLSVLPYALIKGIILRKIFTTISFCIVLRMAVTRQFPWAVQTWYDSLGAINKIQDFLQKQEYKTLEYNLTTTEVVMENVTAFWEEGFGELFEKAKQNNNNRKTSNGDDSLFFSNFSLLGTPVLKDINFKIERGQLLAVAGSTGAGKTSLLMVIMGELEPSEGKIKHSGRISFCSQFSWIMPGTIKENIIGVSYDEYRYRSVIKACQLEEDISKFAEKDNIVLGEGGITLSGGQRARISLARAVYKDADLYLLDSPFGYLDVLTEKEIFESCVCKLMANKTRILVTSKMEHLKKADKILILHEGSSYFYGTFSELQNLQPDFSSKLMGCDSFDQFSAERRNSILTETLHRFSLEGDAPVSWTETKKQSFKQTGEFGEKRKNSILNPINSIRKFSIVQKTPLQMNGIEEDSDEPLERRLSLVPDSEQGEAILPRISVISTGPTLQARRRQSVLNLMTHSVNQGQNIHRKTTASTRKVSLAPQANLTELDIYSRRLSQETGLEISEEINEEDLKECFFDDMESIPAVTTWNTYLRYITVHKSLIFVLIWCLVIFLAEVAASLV
T1 sequence (P13569 919-1480 limits assumed, stated change not applied): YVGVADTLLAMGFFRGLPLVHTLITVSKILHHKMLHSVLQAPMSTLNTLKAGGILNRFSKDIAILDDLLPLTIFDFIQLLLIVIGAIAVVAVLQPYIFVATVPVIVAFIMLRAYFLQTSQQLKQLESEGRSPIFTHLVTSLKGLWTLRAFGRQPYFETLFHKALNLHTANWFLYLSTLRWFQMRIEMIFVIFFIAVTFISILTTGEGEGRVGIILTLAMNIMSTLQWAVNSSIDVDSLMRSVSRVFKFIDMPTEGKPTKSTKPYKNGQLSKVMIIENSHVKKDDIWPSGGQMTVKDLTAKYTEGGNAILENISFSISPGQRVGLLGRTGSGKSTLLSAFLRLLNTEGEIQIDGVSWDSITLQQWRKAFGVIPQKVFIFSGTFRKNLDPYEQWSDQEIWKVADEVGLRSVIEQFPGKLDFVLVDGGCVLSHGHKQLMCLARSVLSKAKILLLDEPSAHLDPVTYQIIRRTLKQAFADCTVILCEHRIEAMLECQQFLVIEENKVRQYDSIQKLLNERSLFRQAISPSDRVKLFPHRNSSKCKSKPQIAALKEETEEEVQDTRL

EC50 [nM] | Maximum % activity (%) | SMILES
70 | 113 | COc1ccc2c(c1)O[C@@H](c1ccc(C(=O)NCC(N)=O)cn1)C[C@H]2NC(=O)[C@@]1(C)COc2cc3c(cc21)OC(F)(F)O3 [Example 227, N-(2-amino-2-oxoethyl)-6-[(2R,4R)-4-{[(7R)-2,2-difluoro-7-methyl-6,7-dihydro-2H-furo[2,3-f][1,3]benzodioxole-7-carbonyl]amino}-7-methoxy-3,4-dihydro-2H-1-benzopyran-2-yl]pyridine-3-carboxamide]
50 | 112 | COc1ccc2c(c1)O[C@@H](c1ccc(C(=O)N3CCN(S(N)(=O)=O)CC3)cn1)C[C@H]2NC(=O)[C@@]1(C)COc2cc3c(cc21)OC(F)(F)O3 [Example 233, (7R)-2,2-difluoro-N-{(2R,4R)-7-methoxy-2-[5-(4-sulfamoylpiperazine-1-carbonyl)pyridin-2-yl]-3,4-dihydro-2H-1-benzopyran-4-yl}-7-methyl-6,7-dihydro-2H-furo[2,3-f][1,3]benzodioxole-7-carboxamide]
40 | 112 | COc1ccc2c(c1)O[C@@H](c1ccc(C(=O)N(C)CCO)cn1)C[C@H]2NC(=O)[C@@]1(C)COc2cc3c(cc21)OC(F)(F)O3 [Example 234, 6-[(2R,4R)-4-{[(7R)-2,2-difluoro-7-methyl-6,7-dihydro-2H-furo[2,3-f][1,3]benzodioxole-7-carbonyl]amino}-7-methoxy-3,4-dihydro-2H-1-benzopyran-2-yl]-N-(2-hydroxyethyl)-N-methylpyridine-3-carboxamide]
50 | 121 | COc1ccc2c(c1)O[C@@H](c1ccc(C(=O)N3CCOC(CO)C3)cn1)C[C@H]2NC(=O)[C@@]1(C)COc2cc3c(cc21)OC(F)(F)O3 (stereo partly drawn) [Example 237, (7R)-2,2-difluoro-N-[(2R,4R)-2-{5-[2-(hydroxymethyl)morpholine-4-carbonyl]pyridin-2-yl}-7-methoxy-3,4-dihydro-2H-1-benzopyran-4-yl]-7-methyl-6,7-dihydro-2H-furo[2,3-f][1,3]benzodioxole-7-carboxamide]
80 | 113 | COc1ccc2c(c1)O[C@@H](c1ccc(C(=O)N3CCC(O)(CCO)C3)cn1)C[C@H]2NC(=O)[C@@]1(C)COc2cc3c(cc21)OC(F)(F)O3 (stereo partly drawn) [Example 238, (7R)-2,2-difluoro-N-[(2R,4R)-2-{5-[3-hydroxy-3-(2-hydroxyethyl)pyrrolidine-1-carbonyl]pyridin-2-yl}-7-methoxy-3,4-dihydro-2H-1-benzopyran-4-yl]-7-methyl-6,7-dihydro-2H-furo[2,3-f][1,3]benzodioxole-7-carboxamide]

The next lines start with the compound.

SMILES | EC50 [nM] | Maximum % activity (%)
C[C@]1(C(=O)N[C@H]2C[C@@H](C3CCN(C(=O)OCc4ccccc4)CC3)Oc3cc(OC(F)(F)F)ccc32)COc2cc3c(cc21)OC(F)(F)O3 [Example 225, benzyl 4-[(2S,4S)-4-{[(7R)-2,2-difluoro-7-methyl-6,7-dihydro-2H-furo[2,3-f][1,3]benzodioxole-7-carbonyl]amino}-7-(trifluoromethoxy)-3,4-dihydro-2H-1-benzopyran-2-yl]piperidine-1-carboxylate] | 4020 | 54
CC1(C)OC[C@H](CN2CCC([C@@H]3C[C@H](NC(=O)[C@@]4(C)COc5cc6c(cc54)OC(F)(F)O6)c4ccc(OC(F)(F)F)cc4O3)CC2)O1 [Example 226, (7R)—N-[(2S,4S)-2-(1-{[(4S)-2,2-dimethyl-1,3-dioxolan-4-yl]methyl}piperidin-4-yl)-7-(trifluoromethoxy)-3,4-dihydro-2H-1-benzopyran-4-yl]-2,2-difluoro-7-methyl-6,7-dihydro-2H-furo[2,3-f][1,3]benzodioxole-7-carboxamide] | > 20000 | 18
COc1ccc2c(c1)O[C@@H](c1ccc(C(=O)NCCCC(N)=O)cn1)C[C@H]2NC(=O)[C@@]1(C)COc2cc3c(cc21)OC(F)(F)O3 [Example 228, N-(4-amino-4-oxobutyl)-6-[(2R,4R)-4-{[(7R)-2,2-difluoro-7-methyl-6,7-dihydro-2H-furo[2,3-f][1,3]benzodioxole-7-carbonyl]amino}-7-methoxy-3,4-dihydro-2H-1-benzopyran-2-yl]pyridine-3-carboxamide] | 90 | 108
COc1ccc2c(c1)O[C@@H](c1ccc(C(=O)NC(C)CC(N)=O)cn1)C[C@H]2NC(=O)[C@@]1(C)COc2cc3c(cc21)OC(F)(F)O3 (stereo partly drawn) [Example 229, N-(4-amino-4-oxobutan-2-yl)-6-[(2R,4R)-4-{[(7R)-2,2-difluoro-7-methyl-6,7-dihydro-2H-furo[2,3-f][1,3]benzodioxole-7-carbonyl]amino}-7-methoxy-3,4-dihydro-2H-1-benzopyran-2-yl]pyridine-3-carboxamide] | 110 | 118
COc1ccc2c(c1)O[C@@H](c1ccc(C(=O)NCCS(C)(=O)=O)cn1)C[C@H]2NC(=O)[C@@]1(C)COc2cc3c(cc21)OC(F)(F)O3 [Example 230, 6-[(2R,4R)-4-{[(7R)-2,2-difluoro-7-methyl-6,7-dihydro-2H-furo[2,3-f][1,3]benzodioxole-7-carbonyl]amino}-7-methoxy-3,4-dihydro-2H-1-benzopyran-2-yl]-N-[2-(methanesulfonyl)ethyl]pyridine-3-carboxamide] | 60 | 115
COc1ccc2c(c1)O[C@@H](c1ccc(C(=O)NCC3CNC(=O)C3)cn1)C[C@H]2NC(=O)[C@@]1(C)COc2cc3c(cc21)OC(F)(F)O3 (stereo partly drawn) [Example 231, 6-[(2R,4R)-4-{[(7R)-2,2-difluoro-7-methyl-6,7-dihydro-2H-furo[2,3-f][1,3]benzodioxole-7-carbonyl]amino}-7-methoxy-3,4-dihydro-2H-1-benzopyran-2-yl]-N-[(5-oxopyrrolidin-3-yl)methyl]pyridine-3-carboxamide] | 250 | 103
COc1ccc2c(c1)O[C@@H](c1ccc(C(=O)NC3CCNC(=O)C3)cn1)C[C@H]2NC(=O)[C@@]1(C)COc2cc3c(cc21)OC(F)(F)O3 (stereo partly drawn) [Example 232, 6-[(2R,4R)-4-{[(7R)-2,2-difluoro-7-methyl-6,7-dihydro-2H-furo[2,3-f][1,3]benzodioxole-7-carbonyl]amino}-7-methoxy-3,4-dihydro-2H-1-benzopyran-2-yl]-N-(2-oxopiperidin-4-yl)pyridine-3-carboxamide] | 260 | 117
CCN(CCO)C(=O)c1ccc([C@H]2C[C@@H](NC(=O)[C@@]3(C)COc4cc5c(cc43)OC(F)(F)O5)c3ccc(OC)cc3O2)nc1 [Example 235, 6-[(2R,4R)-4-{[(7R)-2,2-difluoro-7-methyl-6,7-dihydro-2H-furo[2,3-f][1,3]benzodioxole-7-carbonyl]amino}-7-methoxy-3,4-dihydro-2H-1-benzopyran-2-yl]-N-ethyl-N-(2-hydroxyethyl)pyridine-3-carboxamide] | 50 | 114
COc1ccc2c(c1)O[C@@H](c1ccc(C(=O)N(CCO)CCO)cn1)C[C@H]2NC(=O)[C@@]1(C)COc2cc3c(cc21)OC(F)(F)O3 [Example 236, 6-[(2R,4R)-4-{[(7R)-2,2-difluoro-7-methyl-6,7-dihydro-2H-furo[2,3-f][1,3]benzodioxole-7-carbonyl]amino}-7-methoxy-3,4-dihydro-2H-1-benzopyran-2-yl]-N,N-bis(2-hydroxyethyl)pyridine-3-carboxamide] | 70 | 131
